Source: patent US8481541B2, “Pyrrolopyrazine kinase inhibitors” (Hoffmann-La Roche Inc., priority 2010, dated 2013)
pIC50: −log10 of the molar value.

What was measured:
[1] = target: T1, h-jak3(810-1124) (JAK3 recombinant human kinase domain) (Homo sapiens, UniProt P52333); test: Determination of IC50 of Janus Kinase (JAK) inhibition, radioactive end-point 33P-ATP kinase assay, JAK3; format: biochemical; settings: JAK3 kinase domain (810-1124), sf9; no additive; ATP 1.5 uM, peptide 50 uM, 20 minutes, room temperature; read-out: Ic50 h-jak3(810-1124)-sf9-c: no additive
T1 construct: Ic50 h-jak3(810-1124)-; made in house; host or cells: Sf9 insect cells
T1 sequence (P52333 810-1124): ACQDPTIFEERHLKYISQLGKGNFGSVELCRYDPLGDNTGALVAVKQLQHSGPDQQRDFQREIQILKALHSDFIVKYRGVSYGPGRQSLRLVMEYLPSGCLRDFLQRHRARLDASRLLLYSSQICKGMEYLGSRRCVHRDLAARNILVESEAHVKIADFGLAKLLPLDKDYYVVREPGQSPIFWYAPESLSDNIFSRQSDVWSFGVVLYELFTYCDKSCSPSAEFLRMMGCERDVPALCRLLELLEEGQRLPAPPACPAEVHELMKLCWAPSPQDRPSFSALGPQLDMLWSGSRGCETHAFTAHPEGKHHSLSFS
Source text: Determination of IC50 of Janus Kinase (JAK) Inhibition:
Enzymes and peptide substrate used are described below: • JAK1: Recombinant human kinase domain from Invitrogen (Cat # PV4774) • JAK3: Recombinant human kinase domain from Millipore (Cat # 14-629) or prepared. • JAK2: Recombinant human kinase domain from Millipore (Cat # 14-640) Substrate: N-terminally biotinylated 14-mer peptide derived from activation loop of JAK1 with sequence of the peptide substrate: Biotin-[…]
Assay conditions used are described below: • Assay Buffer: JAK Kinase Buffer: 50 mM Hepes [pH 7.2], 10 mM MgCl2, 1 mM DTT, 1 mg/ml BSA. The assay was carried out in this buffer. • Assay Format The kinase activity of all three JAK kinases was measured using a radioactive, end-point assay and with trace amounts of ^33P-ATP. The assays were carried out in 96-well polypropylene plates. Experimental Method:
All concentrations were final in the reaction mixture and all incubations were carried at room temperature. Assay steps are described below: • 1) Compounds were serially diluted in 100% DMSO typically at a 10× starting concentration of 1 mM. Final concentration of DMSO in the reaction was 10%. • 2) Compounds were preincubated with enzyme (0.5 nM JAK3 (commercially available), 0.2 nM JAK3 (prepared), 1 nM JAK2, 5 nM JAK1) for 10 minutes. • 3) Reactions were initiated by the addition of a cocktail of the two substrates (ATP and peptide premixed in the JAK Kinase Buffer). In the JAK2/JAK3 assays, ATP and the peptide were used at concentrations of 1.5 uM and 50 uM, respectively. JAK1 assay was carried out at an ATP concentration of 10 uM and a peptide concentration of 50 uM. • 4) The duration of the assay for JAK2 and JAK3 is 20 minutes. JAK1 assay was carried out for 40 minutes. With all three enzymes, reactions were terminated by the addition of 0.5M EDTA to a final concentration of 100 mM. • 5) 25 ul of terminated reactions were transferred to 150 ul of a 7.5% (v/v) slurry of streptavidin-coated sepharose beads in MgCl2- and CaCl2-free 1× Phosphate Buffered Saline containing 50 mM of EDTA in 96-well, 1.2 um MultiScreen-BV filter plates. • 6) After a 30-minute incubation, the beads were washed under vacuum with the following buffers: • a. 3 to 4 washes with 200 ul of 2M NaCl. • b. 3 to 4 washes with 200 ul of 2M NaCl plus 1% (v/v) phosphoric acid. • c. 1 wash with water. • 7) Washed plates were dried in a 60° C. oven for between 1 to 2 hours. • 8) 70 ul of Microscint 20 scintillation fluid was added to each well of filter plates and after at least 30 minutes of incubation, radioactive counts were measured in a Perkinelmer microplate scintillation counter.

Structure (SMILES)	melting point [°C]	pIC50 [1]
NC(=O)CNC(=O)c1c[nH]c2ncc(C3CC3)nc12 [Compound I-1, 2-Cyclopropyl-5H-pyrrolo[2,3-b]pyrazine-7-carboxylic acid carbamoylmethyl-amide]	215 to 220	6.54
CC(CC(=O)NCC(F)(F)F)NC(=O)c1c[nH]c2ncc(C3CC3)nc12 (stereo not shown) [Compound I-2, 2-Cyclopropyl-5H-pyrrolo[2,3-b]pyrazine-7-carboxylic acid [1-methyl-2-(2,2,2-trifluoro-ethylcarbamoyl)-ethyl]-amide]	230 to 232	6.70
CC(C)(C(N)=O)C(NC(=O)c1c[nH]c2ncc(C3CC3)nc12)C1CC1 (stereo not shown) [Compound I-7, 2-Cyclopropyl-5H-pyrrolo[2,3-b]pyrazine-7-carboxylic acid (2-carbamoyl-1-cyclopropyl-2-methyl-propyl)-amide]	222 to 224	7.17
CN1CCC[C@@H](NC(=O)c2c[nH]c3ncc(C4CC4)nc23)C1=O [Compound I-12, 2-Cyclopropyl-5H-pyrrolo[2,3-b]pyrazine-7-carboxylic acid ((R)-1-methyl-2-oxo-piperidin-3-yl)-amide]		6.75
N#CCCN1CCC[C@@H](NC(=O)c2c[nH]c3ncc(C4CC4)nc23)C1=O [Compound I-13, 2-Cyclopropyl-5H-pyrrolo[2,3-b]pyrazine-7-carboxylic acid [(R)-1-(2-cyano-ethyl)-2-oxo-piperidin-3-yl]-amide]		6.86

Continued by rising pIC50 [1], values first:

melting point [°C]	pIC50 [1]	Structure (SMILES)
	5.91	C[C@H](NC(=O)c1c[nH]c2ncc(C3CC3)nc12)C(=O)N(C)C [Compound I-9, 2-Cyclopropyl-5H-pyrrolo[2,3-b]pyrazine-7-carboxylic acid ((S)-1-dimethylcarbamoyl-ethyl)-amide]
236 to 238	6.01	CC(CC(=O)NC1CC1)NC(=O)c1c[nH]c2ncc(C3CC3)nc12 (stereo not shown) [Compound I-5, 2-Cyclopropyl-5H-pyrrolo[2,3-b]pyrazine-7-carboxylic acid (2-cyclopropylcarbamoyl-1-methyl-ethyl)-amide]
182 to 184	6.04	CCNC(=O)CC(C)NC(=O)c1c[nH]c2ncc(C3CC3)nc12 (stereo not shown) [Compound I-3, 2-Cyclopropyl-5H-pyrrolo[2,3-b]pyrazine-7-carboxylic acid (2-ethylcarbamoyl-1-methyl-ethyl)-amide]
198 to 200	6.08	CCCNC(=O)CC(C)NC(=O)c1c[nH]c2ncc(C3CC3)nc12 (stereo not shown) [Compound I-4, 2-Cyclopropyl-5H-pyrrolo[2,3-b]pyrazine-7-carboxylic acid (1-methyl-2-propylcarbamoyl-ethyl)-amide]
	6.50	O=C(N[C@@H]1CCCNC1=O)c1c[nH]c2ncc(C3CC3)nc12 [Compound I-11, 2-Cyclopropyl-5H-pyrrolo[2,3-b]pyrazine-7-carboxylic acid ((R)-2-oxo-piperidin-3-yl)-amide]
	6.95	C[C@@H](NC(=O)c1c[nH]c2ncc(C3CC3)nc12)C(=O)N(C)C [Compound I-6, 2-Cyclopropyl-5H-pyrrolo[2,3-b]pyrazine-7-carboxylic acid ((R)-1-dimethylcarbamoyl-ethyl)-amide]
	7.02	CC(C)C[C@@H](NC(=O)c1c[nH]c2ncc(C3CC3)nc12)C(=O)N(C)C [Compound I-10, 2-Cyclopropyl-5H-pyrrolo[2,3-b]pyrazine-7-carboxylic acid ((R)-1-dimethylcarbamoyl-3-methyl-butyl)-amide]
	7.40	C[C@@H](NC(=O)c1c[nH]c2ncc(C3CC3)nc12)C(=O)N(C)CC#N [Compound I-8, 2-Cyclopropyl-5H-pyrrolo[2,3-b]pyrazine-7-carboxylic acid [(R)-1-(cyanomethyl-methyl-carbamoyl)-ethyl]-amide]
